Numbered stars: 1 amine (or outer) side, 2 acyl side, 3 side chain; on linkers, the order of the positions; unused ones are H or OH. Bridge positions count the residues as written; N and C are the ends. Square brackets hold non-standard residues; d marks the D form. Peptide text beside a SMILES is read from it. TATA = O=C(CC[*:1])N1CN(C(=O)CC[*:2])CN(C(=O)CC[*:3])C1; Dopa = N[C@@H](Cc1ccc(O)c(O)c1)C(=O)O; dCha = N[C@H](CC1CCCCC1)C(=O)O; Cba = N[C@@H](CC1CCC1)C(=O)O; Pen = CC(C)(S)[C@H](N)C(=O)O; Pip = O=C(O)[C@@H]1CCCCN1; Dap = NC[C@H](N)C(=O)O Bounds are passed on as bounds.

The target of this assay is T1, Fc-tagged human NKp46 (Homo sapiens, UniProt O76036).
T1 construct: purchased ACROBiosystems NC1-H5257
T1 sequence (O76036 22-304): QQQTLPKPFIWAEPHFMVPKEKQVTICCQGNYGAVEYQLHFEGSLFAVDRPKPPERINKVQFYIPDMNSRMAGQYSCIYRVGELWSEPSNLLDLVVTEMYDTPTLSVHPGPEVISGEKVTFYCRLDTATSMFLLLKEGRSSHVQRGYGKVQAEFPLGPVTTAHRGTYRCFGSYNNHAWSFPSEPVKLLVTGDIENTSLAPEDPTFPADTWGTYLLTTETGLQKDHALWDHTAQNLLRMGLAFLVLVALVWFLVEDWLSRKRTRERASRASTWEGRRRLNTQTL
Put plainly: NKp46 SPR assay (Method 1 and/or Method 2). In kind it is binding. The conditions noted are these: SPR Method 1 and/or Method 2, Table 3B. How it is done: SPR experiments were performed to determine ka (M^−1s^−1), kd (s^−1), KD (nM) values (where measurable) of various bicyclic peptides to immobilised NKp46.
For analysis of peptide binding to NKp46, a Biacore 3000 instrument was used with a Cytiva Streptavidin chip. Capture of the protein (recombinant human NKp46-Fc fusion biotinylated via Avi-tag) was carried out at 25° C. with HBS-N (10 mM HEPES, 0.15 M NaCl, pH 7.4) as the running buffer and biotinylated NKp46 was captured to a level of 400-800 RU using a dilution of protein to 0.2 μM in buffer. Buffer was then changed to PBS/0.05% Tween 20 and a dilution series of the peptides was prepared in this buffer with a final DMSO concentration of 0.5% with a top peptide concentration of 100 nM-5000 nM and 6 further 2 or 3-fold dilutions. The SPR analysis was run at 25° C. and a flow rate of 50 μl/min with 60 seconds association and 200-400 seconds dissociation time. Data were corrected for DMSO excluded volume effects. All data were double-referenced for blank injections and reference surface using standard processing procedures and data processing and kinetic fitting were performed using Scrubber software, version 2.0c (BioLogic Software). Data were fitted using simple 1:1 binding model allowing for mass transport effects where appropriate.
Peptides were tested against Fc-tagged human NKp46 (ACROBiosystems, cat no. NC1-H5257).
For analysis of peptide binding, a Biacore 8k+ instrument was used with a CM5 chip (Cytiva). All experiments were carried out at 25° C. Anti-human IgG (Fc) antibody (Cytiva) was immobilized on all flow cells by standard amine coupling chemistry. The running buffer was HBS-N(Cytiva, 10 mM HEPES, 0.15 M NaCl, pH 7.4) and the flow rate was 10 μL/min. The carboxymethyl dextran surface was activated with a 1:1 ratio of 0.4 M 1-ethyl-3-(3-dimethylaminopropyl) carbodiimide hydrochloride (EDC)/0.1 M N-hydroxy succinimide (NHS) (Cytiva) for 420s. […] Residual activated groups were blocked with a 420 s injection of 1 M ethanolamine (pH 8.5). The final surface density was 3000-5000 RU. Fc-tagged human NKp46 was diluted to 0.1 μM in HBS-N and was captured on flow cell 2 only of the sensor chip at a flow rate of 10 μL/min to 500-1000 RU. The buffer was then changed to PBS-P+(Cytiva) supplemented with 2% DMSO. […] The flow rate was 50 μL/min with 60 s association and 400 s dissociation. Data were corrected for DMSO volume exclusion effects. All data were double-referenced against blank injections and reference surface response using standard processing procedures. Data processing and kinetic fitting was performed using Biacore Insight Evaluation Software with Extended Screening and Characterization Extension (Cytiva). Data were fitted using steady state affinity 1:1 binding model to determine KD. Data were fitted using kinetic 1:1 binding model to determine kinetic constants where appropriate.
(In general: In SPR one partner is held on a chip, and binding of the other changes the refractive index at the surface.)

Broadly, the Kd is the concentration at which binding is half-saturated. Take `CC[C@H](C)[C@@H]1NC(=O)CNC(=O)[C@H](Cc2c[nH]c3c(C)cccc23)NC(=O)[C@H](CCC(N)=O)NC(=O)[C@@H]2CSCCC(=O)N3CN(CN(C3)C(=O)CCSC[C@@H](C(=O)N[C@@H](C)C(N)=O)NC1=O)C(=O)CCSC[C@H](NC(=O)[C@H](C)N)C(=O)N[C@@H](CC(=O)O)C(=O)N[C@@H](CC(C)C)C(=O)N[C@@H]([C@@H](C)O)C(=O)N[C@@H]([C@@H](C)O)C(=O)N[C@@H](Cc1c[nH]cn1)C(=O)N[C@@H](CC(N)=O)C(=O)N2` [BCY19723, A-(SEQ ID NO: 161)-A]: the affinity, expressed as Kd, was 2.27 µM.

For `CC(=O)N[C@H]1CSCCC(=O)N2CN3CN(C2)C(=O)CCSC[C@H](C(N)=O)NC(=O)[C@H](Cc2ccc(O)cc2)NC(=O)[C@H](CCC(=O)O)NC(=O)[C@H](CC(=O)O)NC(=O)[C@@H](C)NC(=O)[C@H](CSCCC3=O)NC(=O)[C@H](CC(C)C)NC(=O)[C@H](Cc2ccc(O)cc2)NC(=O)[C@H](CC(=O)O)NC(=O)[C@@H]2CCCN2C(=O)[C@H](CC2CCC2)NC(=O)[C@H](Cc2ccc(O)cc2)NC1=O` [BCY19692, Ac-(SEQ ID NO: 156)] (Ac-CY[Cba]PDYLC[dA]DEY[dC]-NH2; linker 1-8-13 via TATA), the Kd was greater than 0.5 µM.

In turn, `CSCC[C@@H]1NC(=O)[C@@H]2CSCCC(=O)N3CN(CN(C3)C(=O)CCSC[C@H](N)C(=O)N[C@@H](CC(N)=O)C(=O)N[C@@H](CC(C)C)C(=O)N[C@@H](CCC(N)=O)C(=O)N[C@@H](C)C(=O)N3CCC[C@H]3C(=O)N2)C(=O)CCSC[C@@H](C(=O)N[C@@H](C)C(N)=O)NC(=O)[C@H](C(C)C)NC(=O)[C@H](CCCCN)NC(=O)CNC(=O)[C@H]([C@@H](C)O)NC(=O)[C@H](CC(C)C)NC1=O` [BCY19694, (SEQ ID NO: 4)-A] (H-CNLQAPCMLTGKVCA-NH2; linker 1-7-14 via TATA) had a Kd of 2.51 µM.

`CC(=O)N[C@H]1CSCCC(=O)N2CN3CN(C2)C(=O)CCSC[C@H](NC(=O)[C@H](CC(C)C)NC(=O)[C@H](Cc2ccc(O)c(O)c2)NC(=O)[C@H](CC(=O)O)NC(=O)[C@@H]2CCCN2C(=O)[C@H](CC2CCC2)NC(=O)[C@H](Cc2ccc(O)cc2)NC1=O)C(=O)N[C@H](C)C(=O)N[C@@H](CC(=O)O)C(=O)N[C@@H](CCC(=O)O)C(=O)N[C@@H](Cc1ccc(O)cc1)C(=O)N[C@H](C(N)=O)CSCCC3=O` [BCY19686, Ac-(SEQ ID NO: 150)] (Ac-CY[Cba]PD[Dopa]LC[dA]DEYC-NH2; linker 1-8-13 via TATA; C-terminus assumed) gave a Kd of 0.044 µM.

Compound `CSCC[C@@H]1NC(=O)[C@@H]2CSCCC(=O)N3CN(CN(C3)C(=O)CCSC[C@@H](C(=O)N[C@@H](C)C(N)=O)NC(=O)[C@H](C(C)C)NC(=O)[C@H](CCCCN)NC(=O)CNC(=O)[C@H](C)NC(=O)[C@H](CC(C)C)NC1=O)C(=O)CCSC[C@H](NC(=O)[C@H](C)N)C(=O)N[C@@H](CC(N)=O)C(=O)N[C@@H](CC(C)C)C(=O)N[C@@H](CCC(N)=O)C(=O)N[C@@H](C)C(=O)N1CCC[C@H]1C(=O)N2` [BCY18302, A-(SEQ ID NO: 66)-A] (H-ACNLQAPCMLAGKVCA-NH2; linker 2-8-15 via TATA; N-terminus assumed) returned a Kd of 5.38 µM.

Consider `CSCC[C@@H]1NC(=O)[C@@H]2CSCCC(=O)N3CN(CN(C3)C(=O)CCSC[C@@H](C(=O)N[C@@H](C)C(N)=O)NC(=O)[C@H](C(C)C)NC(=O)[C@H](C)NC(=O)CNC(=O)[C@H]([C@@H](C)O)NC(=O)[C@H](CC(C)C)NC1=O)C(=O)CCSC[C@H](NC(=O)[C@H](C)N)C(=O)N[C@@H](CC(N)=O)C(=O)N[C@@H](CC(C)C)C(=O)N[C@@H](CCC(N)=O)C(=O)N[C@@H](C)C(=O)N1CCC[C@H]1C(=O)N2` [BCY18304, A-(SEQ ID NO: 68)-A] (H-ACNLQAPCMLTGAVCA-NH2; linker 2-8-15 via TATA; N-terminus assumed), for which the Kd came to 1.53 µM. This Kd lies about 3.5-fold lower than the previous one.

As for `CSCC[C@@H]1NC(=O)[C@@H]2CSCCC(=O)N3CN(CN(C3)C(=O)CCSC[C@H](NC(=O)[C@@H](N)CN)C(=O)N[C@@H](CC(N)=O)C(=O)N[C@@H](CC(C)C)C(=O)N[C@@H](CCC(N)=O)C(=O)N[C@@H](C)C(=O)N3CCC[C@H]3C(=O)N2)C(=O)CCSC[C@@H](C(=O)N[C@@H](C)C(N)=O)NC(=O)[C@H](C(C)C)NC(=O)[C@H](CCCCN)NC(=O)CNC(=O)[C@H]([C@@H](C)O)NC(=O)[C@H](CC(C)C)NC1=O` [BCY19697, Dap-(SEQ ID NO: 4)-A] (H-[Dap]CNLQAPCMLTGKVCA-NH2; linker 2-8-15 via TATA), binding was characterised by a dissociation constant (Kd) of 3.73 µM. This Kd is about 2.4-fold higher than that of the compound before.

For the compound `CC(=O)N[C@H]1CSCCC(=O)N2CN3CN(C2)C(=O)CCSC[C@H](NC(=O)[C@H](CC(C)C)NC(=O)[C@H](Cc2ccc(O)cc2)NC(=O)[C@H](CC(=O)O)NC(=O)[C@@H]2CCCN2C(=O)[C@H](CC2CCC2)NC(=O)[C@H](Cc2ccc(O)cc2)NC1=O)C(=O)N[C@H](CC1CCCCC1)C(=O)N[C@@H](CC(=O)O)C(=O)N[C@@H](CCC(=O)O)C(=O)N[C@@H](Cc1ccc(O)cc1)C(=O)N[C@H](C(N)=O)CSCCC3=O` [BCY19683, Ac-(SEQ ID NO: 147)] (Ac-CY[Cba]PDYLC[dCha]DEYC-NH2; linker 1-8-13 via TATA; C-terminus assumed), the Kd worked out at 0.01 µM.

`CSCC[C@@H]1NC(=O)[C@H](CCCCN)NC(=O)[C@@H]2CCCN2C(=O)[C@H](Cc2c[nH]cn2)NC(=O)[C@H]([C@@H](C)O)NC(=O)[C@H](CC(N)=O)NC(=O)[C@@H]2CCCN2C(=O)[C@@H]2CSCCC(=O)N3CN(CN(C3)C(=O)CCSC[C@@H](C(=O)N[C@@H](C)C(N)=O)NC1=O)C(=O)CCSC[C@H](NC(=O)[C@H](C)N)C(=O)N[C@@H](CC(C)C)C(=O)N[C@@H](CC(C)C)C(=O)N[C@@H](Cc1c[nH]cn1)C(=O)N[C@@H](CC(=O)O)C(=O)N[C@@H](Cc1c[nH]cn1)C(=O)N2` [BCY14457, A-(SEQ ID NO: 103)-A] (H-ACLLHDHCPNTHPKMCA-NH2; linker 2-8-16 via TATA) returned a Kd of 2.27 µM.

Regarding `CSCC[C@@H]1NC(=O)[C@@H]2CSCCC(=O)N3CN(CN(C3)C(=O)CCSC[C@@H](C(=O)N[C@@H](C)C(N)=O)NC(=O)[C@H](C(C)C)NC(=O)[C@H](CCCCN)NC(=O)CNC(=O)[C@H]([C@@H](C)O)NC(=O)[C@H](CC(C)C)NC1=O)C(=O)CCSC[C@H](NC(=O)[C@H](C)N)C(=O)N[C@@H](CC(N)=O)C(=O)N[C@@H](CC(C)C)C(=O)N[C@@H](CCC(N)=O)C(=O)N[C@@H](C)C(=O)N1CCCC[C@H]1C(=O)N2` [BCY19701, A-(SEQ ID NO: 92)-A] (H-ACNLQA[Pip]CMLTGKVCA-NH2; linker 2-8-15 via TATA), the Kd came to 4.03 µM.

In turn, `CC(=O)N[C@@H]1C(=O)N[C@@H](Cc2ccc(O)cc2)C(=O)N[C@@H](CC2CCC2)C(=O)N2CCC[C@H]2C(=O)N[C@@H](CC(=O)O)C(=O)N[C@@H](Cc2ccc(O)cc2)C(=O)N[C@@H](CC(C)C)C(=O)N[C@H]2CSCCC(=O)N3CN(CN(C3)C(=O)CCSC1(C)C)C(=O)CCSC[C@@H](C(N)=O)NC(=O)[C@H](Cc1ccc(O)cc1)NC(=O)[C@H](CCC(=O)O)NC(=O)[C@H](CC(=O)O)NC(=O)[C@@H](C)NC2=O` [BCY19689, Ac-(SEQ ID NO: 153)] (Ac-[Pen]Y[Cba]PDYLC[dA]DEYC-NH2; linker 1-8-13 via TATA; C-terminus assumed) had a Kd of 0.016 µM.

With `CC(C)C[C@@H]1NC(=O)[C@H](CC(=O)O)NC(=O)[C@@H](NC(=O)[C@H](C)N)CSCCC(=O)N2CN3CN(C2)C(=O)CCSC[C@H](NC(=O)[C@H](CC(N)=O)NC(=O)[C@H](Cc2c[nH]cn2)NC(=O)[C@H]([C@@H](C)O)NC(=O)[C@H]([C@@H](C)O)NC1=O)C(=O)N[C@@H](CCC(N)=O)C(=O)N[C@@H](Cc1c[nH]c2ccccc12)C(=O)NCC(=O)N[C@@H](C)C(=O)N[C@H](C(=O)N[C@@H](C)C(N)=O)CSCCC3=O` [BCY18272, A-(SEQ ID NO: 120)-A] (H-ACDLTTHNCQWGACA-NH2; linker 2-9-14 via TATA), the Kd was found to be 3.19 µM.

`CC[C@H](C)[C@@H]1NC(=O)CNC(=O)[C@H](Cc2c[nH]c3cc(C)ccc23)NC(=O)[C@H](CCC(N)=O)NC(=O)[C@@H]2CSCCC(=O)N3CN(CN(C3)C(=O)CCSC[C@@H](C(=O)N[C@@H](C)C(N)=O)NC1=O)C(=O)CCSC[C@H](NC(=O)[C@H](C)N)C(=O)N[C@@H](CC(=O)O)C(=O)N[C@@H](CC(C)C)C(=O)N[C@@H]([C@@H](C)O)C(=O)N[C@@H]([C@@H](C)O)C(=O)N[C@@H](Cc1c[nH]cn1)C(=O)N[C@@H](CC(N)=O)C(=O)N2` [BCY19722, A-(SEQ ID NO: 160)-A] returned a Kd of 1.46 µM.

(Values after patent US20240108738A1, “BICYCLIC PEPTIDE LIGANDS SPECIFIC FOR NK CELLS” (Bicycle Tx Limited, priority 2021, published 2024).)
